Reference: patent publication US12077503B2, “Substituted cyclic amides and their use as herbicides” (FMC CORPORATION, priority 2015, dated 2024)

Key:
Format in all cases: in vivo
Kochia (Kochia scoparia) [1] = assay: Test A preemergence; details: Bassia scoparia, pre-emergence, 240 h, Preemergence
In short: (§1)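 Visual injury, scored on a 0–100 scale relative to untreated controls, was recorded about 10 d after application. Treatments were a preemergence soil spray over planted seeds or a postemergence spray on plants at the one- to two-leaf stage, 2 to 10 cm tall, all in loam soil–sand blend in the greenhouse.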

[2] = system: barnyardgrass (Echinochloa crus-galli); assay: Test A preemergence; details: Echinochloa crus-galli, pre-emergence, 240 h, Preemergence
In short: as §1

[3] = system: giant foxtail (Setaria faberii); assay: Test A preemergence; details: Setaria faberi, pre-emergence, 240 h, Preemergence
In short: as §1

[4] = system: pigweed (Amaranthus retroflexus); assay: Test A preemergence; details: Amaranthus retroflexus, pre-emergence, 240 h, Preemergence
[5] = system: ragweed (common ragweed, Ambrosia elatior); assay: Test A preemergence; details: Ambrosia artemisiifolia, pre-emergence, 240 h, Preemergence
In short: as §1

[6] = system: ryegrass, Italian (Italian ryegrass, Lolium multiflorum); assay: Test A preemergence; details: Lolium multiflorum, pre-emergence, 240 h, Preemergence
In short: as §1

[7] = system: Galium (catchweed bedstraw, Galium aparine); assay: Test A postemergence; details: Galium, post-emergence, 240 h, Postemergence, read-out: Galium plant response rating (0 to 100 scale)
In short: as §1

Kochia (Kochia scoparia) [8] = assay: Test A postemergence; details: Bassia scoparia, post-emergence, 240 h, Postemergence, read-out: Kochia plant response rating (0 to 100 scale)
In short: as §1

[9] = system: barnyardgrass (Echinochloa crus-galli); assay: Test A postemergence; details: Echinochloa crus-galli, post-emergence, 240 h, Postemergence
In short: as §1

[10] = system: blackgrass (Alopecurus myosuroides); assay: Test A postemergence; details: Alopecurus myosuroides, post-emergence, 240 h, Postemergence, read-out: Blackgrass plant response rating (0 to 100 scale)
In short: as §1

corn (Zea mays) = assay: Test A postemergence; details: Zea mays, post-emergence, 240 h, Postemergence, read-out: Corn plant response rating (0 to 100 scale)
In short: as §1

[11] = system: giant foxtail (Setaria faberii); assay: Test A postemergence; details: Setaria faberi, post-emergence, 240 h, Postemergence, read-out: Foxtail, Giant plant response rating (0 to 100 scale)
In short: as §1

[12] = system: pigweed (Amaranthus retroflexus); assay: Test A postemergence; details: Amaranthus retroflexus, post-emergence, 240 h, Postemergence, read-out: Pigweed plant response rating (0 to 100 scale)
In short: as §1

[13] = system: ragweed (common ragweed, Ambrosia elatior); assay: Test A postemergence; details: Ambrosia artemisiifolia, post-emergence, 240 h, Postemergence, read-out: Ragweed plant response rating (0 to 100 scale)
In short: as §1

[14] = system: ryegrass, Italian (Italian ryegrass, Lolium multiflorum); assay: Test A postemergence; details: Lolium multiflorum, post-emergence, 240 h, Postemergence, read-out: Ryegrass, Italian plant response rating (0 to 100 scale)
In short: as §1

[15] = system: wheat (Triticum aestivum); assay: Test A postemergence; details: Triticum aestivum, post-emergence, 240 h, Postemergence, read-out: Wheat plant response rating (0 to 100 scale)
In short: as §1

[16] = system: barnyardgrass (Echinochloa crus-galli); assay: Test B flooded paddy test; details: Echinochloa crus-galli, 360 h, Flood, 250 g ai/ha; visually evaluated after 13 to 15 d; read-out: Plant response rating, Barnyardgrass (0 to 100 scale where 0 is no effect and 100 is complete control)
In short: (§2)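 Response scored visually against untreated controls, 0 = no effect and 100 = complete control, 13–15 d after treatment in the greenhouse. Compounds added to paddy water held 3 cm above soil surface. Treatment given at 2-leaf stage.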

[17] = system: ducksalad (Heteranthera limosa); assay: Test B flooded paddy test; details: Heteranthera limosa, 360 h, Flood, 250 g ai/ha; visually evaluated after 13 to 15 d; read-out: Plant response rating, Ducksalad (0 to 100 scale where 0 is no effect and 100 is complete control)
In short: as §2

rice (Oryra sativa) = assay: Test B flooded paddy test; details: Oryza sativa, 360 h, Flood, 250 g ai/ha; visually evaluated after 13 to 15 d; read-out: Plant response rating, Rice (0 to 100 scale where 0 is no effect and 100 is complete control)
In short: as §2

[18] = system: sedge, umbrella (small-flower umbrella sedge, Cyperus difformis); assay: Test B flooded paddy test; details: Cyperus difformis, 360 h, Flood, 250 g ai/ha; visually evaluated after 13 to 15 d; read-out: Plant response rating, Sedge, Umbrella (0 to 100 scale where 0 is no effect and 100 is complete control)
In short: as §2

[19] = 125 g ai/ha, visual rating about 10 d after treatment
[20] = 31 g ai/ha, 0 is no effect, 100 is complete control

Cc1ccc([C@H]2CN(C)C(=O)[C@@H]2C(=O)Nc2cccc(F)n2)cc1 [Compound 1375]
pest or weed control at 31 g/ha (Kochia (Kochia scoparia) [1]; 31 g ai/ha, 0 to 100 scale where 0 is no effect and 100 is complete control, read-out: Kochia plant response rating): 50%
pest or weed control at 125 g/ha (Kochia (Kochia scoparia) [1]; 125 g ai/ha, 0 to 100 scale (0 no effect, 100 complete control), read-out: Plant response rating, Kochia): 70%
pest or weed control at 31 g/ha ([2]; 31 g ai/ha, 0 to 100 scale where 0 is no effect and 100 is complete control, read-out: Barnyardgrass plant response rating): 90%
pest or weed control at 125 g/ha ([2]; 125 g ai/ha, 0 to 100 scale (0 no effect, 100 complete control), read-out: Plant response rating, Barnyardgrass): 100%
pest or weed control at 31 g/ha ([3]; 31 g ai/ha, 0 to 100 scale where 0 is no effect and 100 is complete control, read-out: Foxtail, Giant plant response rating): 90%
pest or weed control at 125 g/ha ([3]; 125 g ai/ha, 0 to 100 scale (0 no effect, 100 complete control), read-out: Plant response rating, Foxtail, Giant): 100%
pest or weed control at 31 g/ha ([4]; 31 g ai/ha, 0 to 100 scale where 0 is no effect and 100 is complete control, read-out: Pigweed plant response rating): 0%
pest or weed control at 125 g/ha ([4]; 125 g ai/ha, 0 to 100 scale (0 no effect, 100 complete control), read-out: Plant response rating, Pigweed): 0%
pest or weed control at 31 g/ha ([5]; 31 g ai/ha, 0 to 100 scale where 0 is no effect and 100 is complete control, read-out: Ragweed plant response rating): 40%
pest or weed control at 125 g/ha ([5]; 125 g ai/ha, 0 to 100 scale (0 no effect, 100 complete control), read-out: Plant response rating, Ragweed): 70%
pest or weed control at 31 g/ha ([6]; 31 g ai/ha, 0 to 100 scale where 0 is no effect and 100 is complete control, read-out: Ryegrass, Italian plant response rating): 0%
pest or weed control at 125 g/ha ([6]; 125 g ai/ha, 0 to 100 scale (0 no effect, 100 complete control), read-out: Plant response rating, Ryegrass, Italian): 70%
pest or weed control at 125 g/ha [7, 19]: 50%
pest or weed control at 31 g/ha [7, 20]: 20%
pest or weed control at 125 g/ha (Kochia (Kochia scoparia) [8]; [19]): 50%
pest or weed control at 31 g/ha (Kochia (Kochia scoparia) [8]; [20]): 30%
pest or weed control at 125 g/ha ([9]; 125 g ai/ha, visual rating about 10 d after treatment, read-out: Barnyardgrass plant response rating (0 to 100 scale, 0 no effect, 100 complete control)): 100%
pest or weed control at 31 g/ha ([9]; 31 g ai/ha, 0 is no effect, 100 is complete control, read-out: Barnyardgrass plant response rating (0 to 100 scale)): 70%
pest or weed control at 125 g/ha [10, 19]: 40%
pest or weed control at 31 g/ha [10, 20]: 0%
plant injury at 125 g/ha (corn (Zea mays); [19]): 30%
plant injury at 31 g/ha (corn (Zea mays); [20]): 0%
pest or weed control at 125 g/ha [11, 19]: 90%
pest or weed control at 31 g/ha [11, 20]: 70%
pest or weed control at 125 g/ha [12, 19]: 0%
pest or weed control at 31 g/ha [12, 20]: 0%
pest or weed control at 125 g/ha [13, 19]: 20%
pest or weed control at 31 g/ha [13, 20]: 0%
pest or weed control at 125 g/ha [14, 19]: 20%
pest or weed control at 31 g/ha [14, 20]: 0%
plant injury at 125 g/ha [15, 19]: 30%
plant injury at 31 g/ha [15, 20]: 0%
pest or weed control at 250 g/ha [16]: 70%
pest or weed control at 250 g/ha [17]: 95%
pest or weed control at 250 g/ha (rice (Oryra sativa)): 0%
pest or weed control at 250 g/ha [18]: 0%
